Source: patent US8673850B2, “PCSK9 inhibitors and methods of use thereof” (Institut de Recherches Cliniques de Montreal, priority 2008, dated 2014)

How the values were obtained:
PCSK9 [1] = experiment: 5-Azacytidine treatment of HepG2 cells, PCSK9 expression; assay type: cell-based, human
Source text: (§1) Western blotting experiments were made on samples that were reduced in Laemmli buffer, heated and resolved on 8% glycine SDS-PAGE gels. Separated proteins were then electro-transferred onto nitrocellulose, and probed with HRP-conjugated anti-V5 or anti-HA tags or with primary antibodies. […] Quantitation of band intensity was done with the ImageJ™ software version 1.37 (Wayne Rasband, National Institutes of Health, Bethesda, Md.).
(§2) For RNA preparation and cDNA synthesis cells were washed with PBS and incubated with Trizol reagent (Life Technologies). Total RNA was extracted and resuspended in ˜30 μL of water. Isolated RNA integrity was electrophoretically verified by ethidium bromide staining and optical density. Typically, 250 ng of total RNA were used for cDNA synthesis in a total volume of 20 μL using SuperScript™ II reverse transcriptase, 25 μg/mL oligo(dT)12-18, 0.5 mmol/L 2′-deoxynucleoside 5′-triphosphates, and 40 U of RNaseOUT™, all products from Life Technologies, and used according to the recommendations of the manufacturer. All primers were designed using Primer3™ software and optimized for each amplification. […] Each reaction was in a final volume of 25 μL using the QuantiTec SYBR Green™ PCR master mix from Qiagen, cDNA dilutions that gave threshold cycle (Ct) values for both amplifications, and primers for ribosomal-protein genes or the chosen target gene. […]

Annexin II = conditions: LNCaP cells; cited from earlier work
HMG-CoA reductase = experiment: 5-Azacytidine treatment of HepG2 cells, HMG-CoA reductase expression; assay type: cell-based, human; conditions: HepG2, qPCR
Experimental: For RNA preparation and cDNA synthesis cells were washed with PBS and incubated with Trizol reagent (Life Technologies). Total RNA was extracted and resuspended in ˜30 μL of water. Isolated RNA integrity was electrophoretically verified by ethidium bromide staining and optical density. Typically, 250 ng of total RNA were used for cDNA synthesis in a total volume of 20 μL using SuperScript™ II reverse transcriptase, 25 μg/mL oligo(dT)12-18, 0.5 mmol/L 2′-deoxynucleoside 5′-triphosphates, and 40 U of RNaseOUT™, all products from Life Technologies, and used according to the recommendations of the manufacturer. All primers were designed using Primer3™ software and optimized for each amplification. Each cDNA sample was submitted to 2 polymerase chain reaction (PCR) amplifications: one for normalizing ribosomal-protein gene (S14 for human and S16 for mouse cDNAs) and the other for the gene of interest, each in triplicate. Each reaction was in a final volume of 25 μL using the QuantiTec SYBR Green™ PCR master mix from Qiagen, cDNA dilutions that gave threshold cycle (Ct) values for both amplifications, and primers for ribosomal-protein genes or the chosen target gene. The Mx3500P™ system from Stratagene was used to perform and analyze the QPCR reactions, using S14 amplifications as normalizers and control samples as calibrators^25.35.

LDLR [2] = experiment: 5-Azacytidine treatment of HepG2 cells, LDLR expression; assay type: cell-based, human
Source text: as §1, §2

AnxA2 [3] = experiment: 5-Azacytidine treatment of HepG2 cells, AnxA2 expression; assay type: cell-based, human
Source text: as §1, §2

[4] = test system: PCSK9-induced LDLR degradation; experiment: LDLR Western blot of HepG2 cells incubated with PCSK9 conditioned media with or without purified AnxA2; assay type: cell-based, human
Experimental: (§3) HepG2, HuH7, COS-1, BSC40 and HEK293 cell were grown in Dulbecco's modified Eagle's medium (DMEM) with 10% fetal bovine serum (FBS; Gibco), whereas CHO-K1 and CHO-K1 mutant Pgsd-677 cells that lack heparan sulfate proteoglycans^26 were grown in Ham's F12:DMEM (50:50) media with 10% FBS. Y1 mouse adrenal cells were grown in F12K medium with 15% horse serum and 2.5% FBS. All cells were maintained at 37° C. under 5% CO2. At 80-90% confluence, HuH7 and CHO-K1 cells were transiently transfected with Lipofectamine™ 2000 (Invitrogen), HEK293 cells were transfected with Effectene™ (Qiagen) and HepG2 cells were transfected with Fugene™ HD (Roche). […] For analysis of the various AnxA2 mutants in HEK293 cells, 24 h post-transfection, the cells were washed and then incubated for another 24 h in complete medium containing 50 μM of the proteasome inhibitor ALLN (Calbiochem). Stable transfectants of shRNA-AnxA2 were obtained in HuH7 cells following puromycin selection.
Western blotting experiments were made on samples that were reduced in Laemmli buffer, heated and resolved on 8% glycine SDS-PAGE gels. Separated proteins were then electro-transferred onto nitrocellulose, and probed with HRP-conjugated anti-V5 or anti-HA tags or with primary antibodies. […] Quantitation of band intensity was done with the ImageJ™ software version 1.37 (Wayne Rasband, National Institutes of Health, Bethesda, Md.). […]

PCSK9-V5 [5] = biological target: T1, PCSK9-V5 (Homo sapiens, UniProt Q8NBP7); experiment: Hexa-His pull-down assay; assay type: binding; parameters: made in house; host or cells: CHO-K1 cells (conditioned medium, not purified); conditions: 20 μg protein immobilized on cobalt chelate resin
Experimental: 20 μg of purified AnxA2-(His)6 or AnxA1-(His)6 or no proteins (for negative control) were immobilized onto a cobalt chelate resin (Thermo Scientific). The resin was then washed several times with 40 mM immidazole and incubated overnight at 4° C. with 800 μl of conditioned media from PCSK9-V5-transfected CHO-K1 cells containing 40 mM immidazole. The resin was then washed several times with immidazole (40 mM), heated in reducing Laemmli sample buffer and centrifuged. Supernatants were analyzed by Western blot as described above using the anti-V5-HRP or anti-His-HRP antibodies.

PCSK9-V5 [6] = biological target: T1, PCSK9-V5; experiment: Far Western blot with PCSK9-V5 conditioned media; assay type: binding; parameters: made in house; host or cells: CHO-K1 cells (conditioned medium, not purified)
Experimental: Lysates (20 to 30 μg protein), media or purified AnxA2-(His)6 were heated in reducing or non-reducing Laemmli sample buffer, resolved by SDS-PAGE on 8% glycine gels and electro-transferred onto nitrocellulose membranes (GE Healthcare). Following 1 h incubation in 5% skim milk in Tris-Buffered Saline-0.1% Tween (TBST), membranes where incubated with conditioned media of CHO-K1 cells overexpressing either an empty vector (pIRES-V5), PC5A-V5, CHRD-V5, pIRES-D374Y, PCSK9-V5 or its V5-tagged mutants, or incubated with purified AnxA2-(His)6 for 3 h at room temperature. […] For competition experiments, 10 μg of His-tagged PCSK9 or CHRD were added to the PCSK9-V5 media before Far Western blotting. For PCSK9 binding requirements with the ˜33 kDa protein, 1M NaCl, 10 mg/ml heparin, 1M NaCl+10 mg/ml heparin, or 100 mM EDTA were added to the PCSK9-V5 conditioned media used for Far Western blotting.
Wild type human Annexin A2 (AnxA2) (ATCC #MGC-2257) and Annexin A1 (AnxA1) (ATCC #MGC-5095) were purchased from ATCC and subcloned into NheI/SacI digested pIRES2-EGFP vector. An HA epitope ([…]) was fused by PCR mutagenesis at the C-terminus of both AnxA1 and AnxA2. Two-steps PCRs were performed on AnxA2 cDNA to introduce point mutations (N62Q; S64A; K28S+D34N+E36S; R37S+E43H+K47M; 77RRTKK (SEQ ID NO: 26)>AATAK (SEQ ID NO: 27); ^77RRTKK (SEQ ID NO: 26)>AATAA (SEQ ID NO: 28); ^77RRTKKELASALK (SEQ ID NO: 29)>^77AATAAELASALA (SEQ ID NO: 30); 80KKELA (SEQ ID NO: 31)>GKPLD (SEQ ID NO: 32)), or amino acid (aa) deletions (Δ2-24, aa 2-24; ΔR1, aa 37-108; ΔR2, aa 109-192; ΔR3, aa 193-268; ΔR4, aa 269-339; Δ25-36, aa 25-36; Δ37-48, aa 37-48; Δ49-61, aa 49-61; Δ62-75, aa 62-75; Δ37-66, aa 37-66; Δ74-88, aa 74-88; Δ82-88, aa 82-88; Δ89-101, aa 89-101; Δ102-108, aa 102-108) into pIRES2-AnxA2-EGFP vector (see Table 3 above). In addition, using PCR, the AnxA2 segment aa 49-75 was swapped with the corresponding AnxA1 segment aa 58-84 [AnxA1 (aa 58-84)>AnxA2 (aa 49-75)]. Similar swaps were performed for the corresponding AnxA2 sequence with AnxA1 (AnxA1>AnxA2: aa 25-27; aa 28-30; aa 31-33; aa 34-36; aa 37-39; aa 40-42; aa 43-45; aa 46-48; aa 49-75; aa 49-61; aa 62-75). All final cDNA constructs were verified by DNA sequencing.

PCSK9 [7] = biological target: T2, PCSK9 (Homo sapiens, UniProt Q8NBP7); experiment: Cell surface PCSK9 immunofluorescence on CHO-K1 cells overexpressing the LDLR; assay type: cell-based; conditions: 1 μg purified PCSK9, 4° C., 5 or 20 μg purified AnxA2
T2 construct: purchased Bristol-Myers Squibb (gift, not bought); host or cells: added to CHO-K1 cells overexpressing the LDLR
Experimental: (§4) For immuno-cytochemistry, cells were plated on glass bottom culture dishes (MatTek) and then transfected the following day. Twenty-four hours post-transfection, the cells were washed with DMEM, incubated for an additional 20 h without serum and then washed 3 times with PBS. Cell surface labelings were made under non-permeabilizing conditions by fixation with 3.7% formaldehyde for 10 min at room temperature. Cells were then washed in PBS, incubated for 5 min in 150 mM glycine, washed once in PBS and incubated for 30 min in 1% bovine serum albumin in PBS. Cells were incubated overnight at 4° C. with primary antibodies and then washed 4× with PBS. […] After several washes in PBS, cells were covered with 5% 1,4-diazabicyclo[2.2.2]octane (Sigma) in PBS/glycerol 90% and immunofluorescence analyses were performed with a Zeiss LSM-510 confocal microscope.
Finally, addition of 1 μg of purified PCSK9 to CHO-K1 cells overexpressing the LDLR at 4° C. […] Therefore, it was deduced that because of its interaction with the CHRD AnxA2 reduces the level of cell surface PCSK9 likely bound to the LDLR. Without being bound by this hypothesis, PCSK9's reduced binding to LDLR induces a more rapid internalization of PCSK9 into the cell.

AnxA2 [8] = experiment: shRNA knockdown in HuH7 cells, AnxA2 Western blot; assay type: cell-based, human; conditions: HuH7, stable or transient transfection, vs control shRNA
Experimental: (§5) To silence human AnxA2, a 29mer pRS-shRNA was used: (sh3, […] (SEQ ID NO: 105)) (Origene). The control pRS-shGFP vector [shCtl] contained a non-effective 29mer shGFP cassette.
as §3, with “Stable transfectants of shRNA-AnxA2 were obtained in HuH7 cells following puromycin selection.” left out
(§6) Western blotting experiments were made on samples that were reduced in Laemmli buffer, heated and resolved on 8% glycine SDS-PAGE gels. […] Quantitation of band intensity was done with the ImageJ™ software version 1.37 (Wayne Rasband, National Institutes of Health, Bethesda, Md.).

LDLR [9] = experiment: shRNA knockdown in HuH7 cells, LDLR Western blot; assay type: cell-based, human; conditions: HuH7, stable or transient transfection, vs control shRNA
Experimental: as §5
as §3, with “Stable transfectants of shRNA-AnxA2 were obtained in HuH7 cells following puromycin selection.” left out
as §6

LDLR [10] = experiment: LDLR Western blot of transfected HEK293 cells; assay type: cell-based, human; conditions: HEK293 cells (negligible PCSK9), with or without p11
Experimental: as §3, §1

LDLR [11] = experiment: Cell surface LDLR immunofluorescence of transfected HepG2 cells; assay type: cell-based, human
Experimental: as §4

[12] = test system: PCSK9-enhanced LDLR degradation; experiment: LDLR Western blot of CHO-K1 cells co-transfected with PCSK9 and AnxA2; assay type: cell-based; conditions: PCSK9 alone reduced LDLR by ~30%
Experimental: as §3, §1

LDLR [13] = experiment: LDLR Western blot of HepG2 cells transfected with AnxA2; assay type: cell-based, human
Experimental: as §3, §1

T1 sequence (Q8NBP7 153-692): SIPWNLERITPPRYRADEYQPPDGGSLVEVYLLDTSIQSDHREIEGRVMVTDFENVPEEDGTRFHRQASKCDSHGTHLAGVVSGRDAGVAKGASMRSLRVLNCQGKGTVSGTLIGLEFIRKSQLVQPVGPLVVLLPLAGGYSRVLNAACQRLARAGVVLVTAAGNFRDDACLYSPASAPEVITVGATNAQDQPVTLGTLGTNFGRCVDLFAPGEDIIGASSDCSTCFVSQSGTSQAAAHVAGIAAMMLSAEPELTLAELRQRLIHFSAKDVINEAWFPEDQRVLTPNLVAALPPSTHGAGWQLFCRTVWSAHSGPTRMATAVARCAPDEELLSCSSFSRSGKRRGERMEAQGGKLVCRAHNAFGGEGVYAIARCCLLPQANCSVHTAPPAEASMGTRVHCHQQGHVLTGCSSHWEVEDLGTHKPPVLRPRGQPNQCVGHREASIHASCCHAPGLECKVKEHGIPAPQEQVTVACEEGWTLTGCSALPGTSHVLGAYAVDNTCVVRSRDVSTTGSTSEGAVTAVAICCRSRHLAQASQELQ
T1 sequence (Q8NBP7 31-152 partner limits assumed): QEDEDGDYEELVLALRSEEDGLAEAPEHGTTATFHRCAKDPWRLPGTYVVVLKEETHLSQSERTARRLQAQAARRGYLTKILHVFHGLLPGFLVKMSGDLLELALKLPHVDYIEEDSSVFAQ
T2 sequence (Q8NBP7 153-692): as the sequence (Q8NBP7 153-692) above
T2 sequence (Q8NBP7 31-152 partner limits assumed): as the sequence (Q8NBP7 31-152 partner limits assumed) above

## Nc1ncn([C@@H]2O[C@H](CO)[C@@H](O)[C@H]2O)c(=O)n1 [5-Azacytidine]
PCSK9 [1]; HepG2, 24 or 48 hours of treatment
  secreted form of PCSK9 by western blot: barely detectable
PCSK9 [1]; HepG2, qPCR
  mRNA level of PCSK9: drastically decreased
Annexin II
  expression of Annexin II: induced an increase of expression
HMG-CoA reductase
  HMG-CoA reductase mRNA level: decreased
LDLR [2]; HepG2, Western blot
  LDLR expression at the protein level: increased expression
LDLR [2]; HepG2, qPCR
  LDLR mRNA level: increased
AnxA2 [3]; HepG2, 10 μM, qPCR
  AnxA2 mRNA expression: 3 fold
AnxA2 [3]; HepG2, Western blot
  AnxA2 protein level: highly increased

## AnxA2-(His)6: purified His-tagged Annexin A2 purchased from EMD biosciences
[4]; HepG2, media of non-transfected cells, endogenous PCSK9
  level of LDLR: increased the level of LDLR
[4]; HepG2, ~20 h, PCSK9 conditioned media plus 5 ug/ml purified AnxA2-(His)6, ~30% without AnxA2
  PCSK9-enhanced LDLR degradation: ~10%
PCSK9-V5 [5]
  PCSK9-V5 bound in pull-down: bound PCSK9 and its furin cleaved form (PCSK9-Δ218)
PCSK9-V5 [6]; reducing and non-reducing conditions
  PCSK9 binding to purified protein by Far Western blot: binds in a dose-dependant manner
PCSK9 [7]
  cell surface localization of PCSK9: reduced

## AnxA2-shRNA: 29mer pRS-shRNA silencing human AnxA2, GCATCAGCACTGAAGTCAGCCTTATCTGG (SEQ ID NO: 105)
AnxA2 [8]
  knockdown of AnxA2: 60-70%
LDLR [9]
  reduction of the LDLR levels: 40-70%
LDLR [10]
  levels of endogenous LDLR: None of these treatments affected the levels of endogenous LDLR

## AnxA2: wild type human Annexin A2 isoform 2, expressed in cells by transfection
LDLR [11]; HepG2, AnxA2 alone or together with p11, vs pIRES control
  labelling intensity of cell surface LDLR: strong increase
LDLR [11]; HepG2, co-expression with AnxA2
  LDLR-lowering effect of WT-PCSK9 or PCSK9-D374Y: prevented their LDLR-lowering effect
PCSK9-V5 [6]; lysates of cells overexpressing the construct
  PCSK9-V5 binding by Far Western blot: specifically binds
[12]
  LDLR level: returned to that of the control
LDLR [13]; HepG2, AnxA2 co-transfected with p11
  increase of LDLR level: ~90%
LDLR [13]; HepG2 transfected with AnxA2 alone
  increase of LDLR level: ~40%
LDLR [10]
  levels of endogenous LDLR: None of these treatments affected the levels of endogenous LDLR
